Assays:
Assay in all cases: Recombinant chromosome experiments: parents raised on supplement, progeny on normal food, adults by sex (25, 18 or 29° C.)
Assay type in all cases: in vivo, Drosophila melanogaster
[1] = system: Yp3 tTa, tRe Msl-2^Nopu on the 2nd chromosome
Experimental: (§1) 40-45 young females and 20-25 young males raised at 25° C. upon food with the indicated tetracycline supplement were allowed to mate, then transferred to normal (tetracycline-free) food after 3-4 days. These flies were transferred to fresh vials of normal food every day for 12 days, then removed on the 13th day. All the vials were incubated at 25° C. while the progeny developed. The numbers of male and female progeny emerging as adults in each vial were recorded.
(§2) A standard range of additive concentrations were used in the following experiments (0.05-20 μg/ml). […] (=“not done”)
(§3) All the preceding experiments were performed at 25° C., the standard temperature for Drosophila culture. However, the insects in the wild would clearly be exposed to varying temperatures, so we investigated the extent to which the efficiency of the system is affected by temperature. As with the recombinant chromosome experiments, 40-45 young virgin females and 20-25 young males raised at 25° C. upon food with the indicated tetracycline supplement were allowed to mate, then transferred to normal (tetracycline-free) food after 3-4 days. These flies were transferred to fresh vials of normal food every day. The numbers of male and female progeny emerging as adults in each vial were recorded. These experiments were performed at either 18° C. or 29° C.

[2] = system: Sxlp^e tTa, tRe Msl-1^Mpu on the X chromosome
Experimental: as §1, §2, §3

[3] = system: Sxl^pe-tTA, tRE-Ras64B^V12 on the third chromosome; conditions: for Female progeny Total / Male progeny Total: Day 1-12 total
Experimental: as §1, §2, §3

[4] = parents raised on tetracycline 0.1 μg/ml, 18° C.
[5] = parents raised on tetracycline 0.1 μg/ml, 29° C.
[6] = parents raised on tetracycline 1 μg/ml, 18° C.
[7] = parents raised on tetracycline 1 μg/ml, 29° C.
[8] = parents raised on tetracycline 5 μg/ml, 18° C.
[9] = parents raised on tetracycline 5 μg/ml, 29° C.
[10] = parents raised on Tet. 0.1 μg/ml, 25° C.
[11] = parents raised on Tet. 1 μg/ml, 25° C.
[12] = parents raised on Tet. 5 μg/ml, 25° C.
[13] = parents raised on Tet. 20 μg/ml, 25° C.
[14] = parents raised on Tet. 100 μg/ml, 25° C.
[15] = parents raised on Tet. 500 μg/ml, 25° C.
[16] = parents raised on Tet. 1000 μg/ml, 25° C.
[17] = parents raised on Tet. 2000 μg/ml, 25° C.

Structure (SMILES): CN(C)[C@@H]1C(O)=C(C(N)=O)C(=O)[C@@]2(O)C(O)=C3C(=O)c4c(O)cccc4[C@@](C)(O)[C@H]3C[C@@H]12 [Tetracycline, tetracycline]
- Female progeny emerging as adults [1, 4]: 8
- Male progeny emerging as adults [1, 4]: 1152
- Female progeny emerging as adults [1, 5]: 0
- Male progeny emerging as adults [1, 5]: 765
- Female progeny emerging as adults [1, 6]: 12
- Male progeny emerging as adults [1, 6]: 1122
- Female progeny emerging as adults [1, 7]: 0
- Male progeny emerging as adults [1, 7]: 702
- Female progeny emerging as adults [1, 8]: 3
- Male progeny emerging as adults [1, 8]: 1225
- Female progeny emerging as adults [1, 9]: 0
- Male progeny emerging as adults [1, 9]: 773
- Female progeny emerging as adults [2, 4]: 8
- Male progeny emerging as adults [2, 4]: 840
- Female progeny emerging as adults [2, 5]: 0
- Male progeny emerging as adults [2, 5]: 732
- Female progeny emerging as adults [2, 6]: 5
- Male progeny emerging as adults [2, 6]: 927
- Female progeny emerging as adults [2, 7]: 0
- Male progeny emerging as adults [2, 7]: 771
- Female progeny emerging as adults [2, 8]: 8
- Male progeny emerging as adults [2, 8]: 837
- Female progeny emerging as adults [2, 9]: 0
- Male progeny emerging as adults [2, 9]: 816
- Female progeny per daily vial ([3]; parents raised on Tet. 0.1 μg/ml, 25° C., Day 1-12 on tetracycline-free food): 0
- Female progeny Total [3, 10]: 0
- Male progeny Total [3, 10]: 1541
- Female progeny per daily vial ([3]; parents raised on Tet. 1 μg/ml, 25° C., Day 1-12 on tetracycline-free food): 0
- Female progeny Total [3, 11]: 0
- Male progeny Total [3, 11]: 1441
- Female progeny per daily vial ([3]; parents raised on Tet. 5 μg/ml, 25° C., Day 1-12 on tetracycline-free food): 0
- Female progeny Total [3, 12]: 0
- Male progeny Total [3, 12]: 1421
- Female progeny per daily vial ([3]; parents raised on Tet. 20 μg/ml, 25° C., Day 1-12 on tetracycline-free food): 0
- Female progeny Total [3, 13]: 0
- Male progeny Total [3, 13]: 1487
- Female progeny per daily vial ([3]; parents raised on Tet. 100 μg/ml, 25° C., Day 1-12 on tetracycline-free food): 0
- Female progeny Total [3, 14]: 0
- Male progeny Total [3, 14]: 1416
- Female progeny Total [3, 15]: 72
- Male progeny Total [3, 15]: 1388
- Female progeny Total [3, 16]: 87
- Male progeny Total [3, 16]: 1416
- Male progeny per daily vial ([3]; parents raised on Tet. 2000 μg/ml, 25° C., Day 1-12 on tetracycline-free food, listed as Tet.): 123
- Female progeny Total [3, 17]: 161
- Male progeny Total [3, 17]: 1438
- Female progeny emerging as adults [3, 4]: 6
- Male progeny emerging as adults [3, 4]: 1065
- Female progeny emerging as adults [3, 5]: 0
- Male progeny emerging as adults [3, 5]: 781
- Female progeny emerging as adults [3, 6]: 9
- Male progeny emerging as adults [3, 6]: 1124
- Female progeny emerging as adults [3, 7]: 0
- Male progeny emerging as adults [3, 7]: 749
- Female progeny emerging as adults [3, 8]: 7
- Male progeny emerging as adults [3, 8]: 989
- Female progeny emerging as adults [3, 9]: 0
- Male progeny emerging as adults [3, 9]: 741

Reference: patent US9125388B2, “Biological control” (Isis Innovation Limited, priority 1999, dated 2015)
